Data as given in US20030162727A1, “Use of cyp1b1inhibitors for treating cancer” (priority 2000, published 2003).
Values joined by “and” are separate entries in the source; they are usually repeats but may differ in a detail not shown here. Equal entries are not always repeated.

How the values were obtained:
[1] = molecular target: T1, CYP1B1 (Homo sapiens, UniProt Q16678); test: in vitro
T1 sequence (Q16678 1-543): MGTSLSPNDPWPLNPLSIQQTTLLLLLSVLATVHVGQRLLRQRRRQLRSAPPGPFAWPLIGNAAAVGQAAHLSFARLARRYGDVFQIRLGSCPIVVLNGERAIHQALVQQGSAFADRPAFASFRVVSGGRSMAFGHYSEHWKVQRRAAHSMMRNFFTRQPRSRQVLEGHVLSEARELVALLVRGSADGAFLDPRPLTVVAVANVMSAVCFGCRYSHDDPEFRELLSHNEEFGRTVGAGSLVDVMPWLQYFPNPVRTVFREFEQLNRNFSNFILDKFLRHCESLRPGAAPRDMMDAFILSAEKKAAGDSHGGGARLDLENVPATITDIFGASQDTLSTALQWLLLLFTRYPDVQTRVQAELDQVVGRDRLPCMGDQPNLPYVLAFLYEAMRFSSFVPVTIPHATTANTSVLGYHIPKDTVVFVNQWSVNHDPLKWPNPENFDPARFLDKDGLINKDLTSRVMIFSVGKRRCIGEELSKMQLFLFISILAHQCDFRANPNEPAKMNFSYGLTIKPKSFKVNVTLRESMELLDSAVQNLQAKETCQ
Excerpt: Recent immunohistochemical analysis of P4501B1 protein in a variety of solid tumours identified tumour-specific enzyme expression (Murray et al, 1998). This provides a mechanism of resistance to currently used anticancer agents, as well as, an approach for targeted prodrug therapy. 7-ethoxyresorufin deethylase activity (EROD) was used to define interactions with cytochrome 1B1 (CYP1B1). 7-Ethoxyresorufin is a known substrate for P4501B1. […] For this purpose, inhibition constants (Ki) have been calculated using in vitro kinetics from CYP1B1-mediated EROD activity. EROD activity and assay has been described previously by various authors (Lubet et al., 1985, Arch. Biochem. Biophys. 238: pp 43-48; Gentest Corporation, 6 Henshaw St., Woburn, Mass. 01801 USA, data sheet given with CYP1B1, catalogue number P220). 7-Ethoxyresorufin is enzymatically deethylated to a product called resorufin. The appearance of resorufin was monitored by a fluorescence detector set at 550 nm and 582 nm (excitation and emission wavelengths). […] Incubations contained: phosphate buffer at pH 7.4, 7-ethoxyresorufin, CYP1B1 Supersomes from Gentest Co (catalogue number P220) and nicotine adenine dinucleotide phosphate (NADP) as cofactor.
The metabolism of anti-cancer drugs by CYP1B1 was studied using an inhibition of EROD assay. […] Ki values were determined by the Dixon's replots: see Table 2.

[2] = system: CYP1B1, CYP1A1, CYP1A2; test: in vitro; details: human
[3] = molecular target: T1, CYP1B1; test: Biotransformation studies with CYP1B1; details: metabolites produced by CYP1B1 incubation but not control incubations
[4] = system: CYP1B1, CYP1A1, and CYP1A2
[5] = molecular target: T2, CYP1A1 (Homo sapiens, UniProt P04798); test: Flutamide 2-hydroxylation and inhibition, CYP1A1 compared with CYP1B1; assay type: biochemical; details: 2-hydroxylation of flutamide; times higher than CYP1B1
T2 sequence (P04798 1-512): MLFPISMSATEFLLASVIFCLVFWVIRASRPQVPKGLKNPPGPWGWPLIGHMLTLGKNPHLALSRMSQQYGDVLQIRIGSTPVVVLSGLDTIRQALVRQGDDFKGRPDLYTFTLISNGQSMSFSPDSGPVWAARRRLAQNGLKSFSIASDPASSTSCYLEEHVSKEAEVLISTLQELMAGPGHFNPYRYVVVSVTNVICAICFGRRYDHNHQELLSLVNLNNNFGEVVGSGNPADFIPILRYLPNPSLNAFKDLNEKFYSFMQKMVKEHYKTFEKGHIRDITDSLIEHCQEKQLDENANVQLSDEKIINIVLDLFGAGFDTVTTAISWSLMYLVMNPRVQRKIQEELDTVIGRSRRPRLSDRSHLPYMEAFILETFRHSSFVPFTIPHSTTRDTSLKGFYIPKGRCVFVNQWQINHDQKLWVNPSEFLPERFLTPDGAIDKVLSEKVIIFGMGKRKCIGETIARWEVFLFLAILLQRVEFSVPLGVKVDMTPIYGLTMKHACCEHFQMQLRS

## CC(C)C(=O)Nc1ccc([N+](=O)[O-])c(C(F)(F)F)c1 [Flutamide]
[1]
  Inhibition Type: competitive
[1]; Ki Values, Dixon re-plots of EROD activity, mean
  Ki: 1000 nM and 990 nM
[1]; human, pH 7.4
  inhibition at 100 μM: 53 to 99%
[2]
  Ki: 1000 to 10300 nM
[3]
  biotransformation by CYP1B1: biotransformed by CYP1B1
[4]
  inhibition type for CYP1B1, CYP1A1, and CYP1A2 activities: competitive
[5]
  Km for CYP1A1 relative to CYP1B1: 5 times
